In patent US20200264182A1, “METHOD FOR DETECTING PROSTATE CANCER” (J-OIL MILLS, INC., priority 2017, published 2020):

Key:
[1] = FAC binding constant; conditions: at 25° C.
Procedure: (§1) Details of the FAC method are described in Patent Document 2 filed by some of the present applicants, for example.
(§2) Binding constants (at 25° C.) of PhoSL, SRL, NSL and LSL belonging to the fucose α1→6 specific lectin for various sugar chains are shown in Tables 2 to 5.

[2] = FAC binding constant (Table 5 entry); conditions: Table 5: sugar chain having no fucose; at 25° C.
Procedure: as §1, §2

[3] = tested on: serum fucosylated PSA; assay: Sandwich ELISA, anti-PSA antibody and biotin-labeled lectin; format: binding, human; conditions: for Δ (=A − B): reaction value of Prostate cancer 4 minus Healthy 1; for lectin reaction value B of Healthy 1: serum of Healthy 1; for lectin reaction value A of Prostate cancer 4: serum of Prostate cancer 4, GS 6 (3 + 3)
Procedure: The anti-PSA antibody from which sugar chains had been removed was diluted to 5 μg/mL with PBS. 25 μL of this diluted solution was added to each well of an ELISA plate and allowed to stand at 37° C. for 12 hours, and then the additive solution was discarded.
150 μL of PBS containing 0.05% Tween 20 (product name: polyoxyethylene sorbitan monolaurate, from Nacalai Tesque, Inc.) was added to each well, and then the additive solution was discarded. This manipulation was repeated three times in total.
25 μL of 1% BSA/PBS was added to each well and allowed to stand at 37° C. for 1 hour, and then the additive solution was discarded.
150 μL of PBS containing 0.05% Tween 20 was added to each well, and then the additive solution was discarded. This manipulation was repeated three times in total.
To graph a calibration curve, 25 μL of the fucosylated PSA reference standard diluted with 1% BSA/PBS to a concentration of 0 to 200 ng/mL was added to each well and allowed to stand at room temperature for 1 hour, and then the additive solution was discarded. In addition, to detect the fucosylated PSA in the serum of the subject by the lectin, 25 μL of serum of “Healthy 1” and “Prostate cancer 4” 2-fold diluted with PBS was added to each well and allowed to stand at room temperature for 1 hour, and then the additive solution was discarded.
In Reference Example 1, 25 μL of a biotin-labeled PhoSL diluted to 0.1 μg/mL with 0.1% BSA/PBS (pH 7.4) was added to each well and allowed to stand at 4° C. for 30 minutes, and then the additive solution was discarded. In Example 1, 25 μL of a biotin-labeled PhoSL diluted to 0.1 μg/mL with 0.1% BSA/10-fold diluted PBS+glycine-NaOH (pH 9.6) was added to each well and allowed to stand at 4° C. for 30 minutes, and then the additive solution was discarded.
25 μL of a horseradish peroxidase (HRP)-labeled streptavidin solution (from Vector Laboratories, Inc., concentration: 0.4 μg/mL, in 1% BSA/PBS) was added to each well and allowed to stand at room temperature for 30 minutes, and then the additive solution was discarded.
25 μL of chromogenic substrate for HRP (product name: TMB, from Kirkegaard & Perry Laboratories, Inc.) was added to each well and allowed to stand at room temperature for 10 minutes.
25 μL of 1M phosphoric acid was added to terminate the reaction.
Absorbance (Ab) at 450 nm and 630 nm was measured using a plate reader, and a measurement (Ab450-630) was obtained.
A calibration curve was graphed by plotting signals (reaction values, Ab450-630) of the fucosylated PSA reference standard with the biotin-labeled PhoSL. A Signal (Ab450-630) of the biotin-labeled PhoSL corresponding to the fucosylated PSA concentration of 10 ng/mL was defined as 10 U/mL.
The signals of biotin-labeled PhoSL (Ab450-630) for the serum fucosylated PSA in the subject samples A were assigned to the calibration curve to calculate reaction values (unit: U/mL).
The PhoSL reaction values for the subject samples A were measured by the same operation as in Example 1. From the PhoSL reaction values, an average value and a median value were determined. Furthermore, a standard cutoff value (89.7 U/mL) was used to determine a detection rate (positive rate) of the prostate cancer patients, and a false detection rate (false positive rate) of the healthy persons.
Comparative Example 2 in Table 9 indicates results of detecting the serum fucosylated PSA using AAL (AAL reaction values) in the subject samples A. Specifically, in Reference Example 1, AAL reaction values were measured in the same manner as in Reference Example 1 except that the biotin-labeled PhoSL was replaced with a biotin-labeled AAL. A standard cut-off value for the AAL reaction values was 894.8 U/mL. As in Example 2, an average value, a median value, a positive rate and a false positive rate were determined from the AAL reaction values.

[4] = sugar chain having fucose other than α1→6 fucose

NSL: fucose α1→6 specific lectin that can be extracted from Naematoloma sublateritium, SEQ ID No. 4 or 5
222 U/mL: Δ (=A − B) ([3]; pH in lectin reaction 7.4)
<1000 M⁻¹: Binding constant for sugar chain No. 728 ([1]; Table 3: sugar chain having fucose other than α1→6 fucose) | Binding constant for sugar chain No. 419 [1, 4] | Binding constant for sugar chain No. 420 [1, 4] | Binding constant for sugar chain No. 718 [1, 4] | Binding constant for sugar chain No. 719 [1, 4] | Binding constant for sugar chain No. 720 [1, 4] | Binding constant for sugar chain No. 721 [1, 4] | Binding constant for sugar chain No. 722 [1, 4] | Binding constant for sugar chain No. 723 [1, 4] | Binding constant for sugar chain No. 726 [1, 4] | Binding constant for sugar chain No. 727 [1, 4] | Binding constant for sugar chain No. 729 [1, 4] | Binding constant for sugar chain No. 730 [1, 4] | Binding constant for sugar chain No. 731 [1, 4] | Binding constant for sugar chain No. 739 [1, 4] | Binding constant for sugar chain No. 909 [1, 4] | Binding constant for sugar chain No. 910 [1, 4] | Binding constant for sugar chain No. 931 [1, 4] | Binding constant for sugar chain No. 932 [1, 4] | Binding constant for sugar chain No. 933 [1, 4] | Binding constant for sugar chain No. 001 ([1]; sugar chain having no fucose) | Binding constant for sugar chain No. 002 ([1]; sugar chain having no fucose) | Binding constant for sugar chain No. 003 ([1]; sugar chain having no fucose) | Binding constant for sugar chain No. 004 ([1]; sugar chain having no fucose) | Binding constant for sugar chain No. 005 ([1]; sugar chain having no fucose) | Binding constant for sugar chain No. 006 ([1]; sugar chain having no fucose) | Binding constant for sugar chain No. 007 ([1]; sugar chain having no fucose) | Binding constant for sugar chain No. 008 ([1]; sugar chain having no fucose) | Binding constant for sugar chain No. 009 ([1]; sugar chain having no fucose) | Binding constant for sugar chain No. 010 ([1]; sugar chain having no fucose) | Binding constant for sugar chain No. 011 ([1]; sugar chain having no fucose) | Binding constant for sugar chain No. 012 ([1]; sugar chain having no fucose) | Binding constant for sugar chain No. 013 ([1]; sugar chain having no fucose) | Binding constant for sugar chain No. 014 ([1]; sugar chain having no fucose) | Binding constant for sugar chain No. 101 ([1]; sugar chain having no fucose) | Binding constant for sugar chain No. 103 ([1]; sugar chain having no fucose) | Binding constant for sugar chain No. 104 ([1]; sugar chain having no fucose) | Binding constant for sugar chain No. 105 ([1]; sugar chain having no fucose) | Binding constant for sugar chain No. 107 ([1]; sugar chain having no fucose) | Binding constant for sugar chain No. 108 ([1]; sugar chain having no fucose) | Binding constant for sugar chain No. 301 ([1]; sugar chain having no fucose) | Binding constant for sugar chain No. 304 ([1]; sugar chain having no fucose) | Binding constant for sugar chain No. 305 ([1]; sugar chain having no fucose) | Binding constant for sugar chain No. 307 ([1]; sugar chain having no fucose) | Binding constant for sugar chain No. 308 ([1]; sugar chain having no fucose) | Binding constant for sugar chain No. 313 ([1]; sugar chain having no fucose) | Binding constant for sugar chain No. 314 ([1]; sugar chain having no fucose) | Binding constant for sugar chain No. 323 ([1]; sugar chain having no fucose) | Binding constant for sugar chain No. 501 ([1]; sugar chain having no fucose) | Binding constant for sugar chain No. 502 ([1]; sugar chain having no fucose) | Binding constant for sugar chain No. 503 ([1]; sugar chain having no fucose) | Binding constant for sugar chain No. 504 ([1]; sugar chain having no fucose) | Binding constant for sugar chain No. 701 ([1]; sugar chain having no fucose) | Binding constant for sugar chain No. 702 ([1]; sugar chain having no fucose) | Binding constant for sugar chain No. 703 ([1]; sugar chain having no fucose) | Binding constant for sugar chain No. 704 ([1]; sugar chain having no fucose) | Binding constant for sugar chain No. 705 ([1]; sugar chain having no fucose) | Binding constant for sugar chain No. 706 ([1]; sugar chain having no fucose) | Binding constant for sugar chain No. 707 ([1]; sugar chain having no fucose) | Binding constant for sugar chain No. 708 ([1]; sugar chain having no fucose) | Binding constant for sugar chain No. 709 ([1]; sugar chain having no fucose) | Binding constant for sugar chain No. 710 ([1]; sugar chain having no fucose) | Binding constant for sugar chain No. 711 ([1]; sugar chain having no fucose) | Binding constant for sugar chain No. 712 ([1]; sugar chain having no fucose) | Binding constant for sugar chain No. 713 ([1]; sugar chain having no fucose) | Binding constant for sugar chain No. 715 ([1]; sugar chain having no fucose) | Binding constant for sugar chain No. 716 ([1]; sugar chain having no fucose) | Binding constant for sugar chain No. 717 ([1]; sugar chain having no fucose) | Binding constant for sugar chain No. 724 ([1]; sugar chain having no fucose) | Binding constant for sugar chain No. 725 ([1]; sugar chain having no fucose) | Binding constant for sugar chain No. 732 ([1]; sugar chain having no fucose) | Binding constant for sugar chain No. 733 ([1]; sugar chain having no fucose) | Binding constant for sugar chain No. 734 ([1]; sugar chain having no fucose) | Binding constant for sugar chain No. 735 ([1]; sugar chain having no fucose) | Binding constant for sugar chain No. 736 ([1]; sugar chain having no fucose) | Binding constant for sugar chain No. 737 ([1]; sugar chain having no fucose) | Binding constant for sugar chain No. 738 ([1]; sugar chain having no fucose) | Binding constant for sugar chain No. 901 ([1]; sugar chain having no fucose) | Binding constant for sugar chain No. 902 ([1]; sugar chain having no fucose) | Binding constant for sugar chain No. 903 ([1]; sugar chain having no fucose) | Binding constant for sugar chain No. 905 ([1]; sugar chain having no fucose) | Binding constant for sugar chain No. 906 ([1]; sugar chain having no fucose) | Binding constant for sugar chain No. 907 ([1]; sugar chain having no fucose) | Binding constant for sugar chain No. 728 [2]
177.7 U/mL: lectin reaction value B of Healthy 1 ([3]; pH in lectin reaction 7.4)
240.3 U/mL: Δ (=A − B) ([3]; pH in lectin reaction 9.6)
38000 M⁻¹: Binding constant for sugar chain No. 201 ([1]; sugar chain having α1→6 fucose)
42.3 U/mL: lectin reaction value B of Healthy 1 ([3]; pH in lectin reaction 9.6)
36000 M⁻¹: Binding constant for sugar chain No. 015 ([1]; sugar chain having α1→6 fucose) | Binding constant for sugar chain No. 402 ([1]; sugar chain having α1→6 fucose)
280000 M⁻¹: Binding constant for sugar chain No. 413 ([1]; sugar chain having α1→6 fucose)
220000 M⁻¹: Binding constant for sugar chain No. 410 ([1]; sugar chain having α1→6 fucose) | Binding constant for sugar chain No. 418 ([1]; sugar chain having α1→6 fucose)
282.6 U/mL: lectin reaction value A of Prostate cancer 4 ([3]; pH in lectin reaction 9.6)
51000 M⁻¹: Binding constant for sugar chain No. 401 ([1]; sugar chain having α1→6 fucose)
30000 M⁻¹: Binding constant for sugar chain No. 203 ([1]; sugar chain having α1→6 fucose)
240000 M⁻¹: Binding constant for sugar chain No. 601 ([1]; sugar chain having α1→6 fucose)
399.7 U/mL: lectin reaction value A of Prostate cancer 4 ([3]; pH in lectin reaction 7.4)
50000 M⁻¹: Binding constant for sugar chain No. 405 ([1]; sugar chain having α1→6 fucose)
43000 M⁻¹: Binding constant for sugar chain No. 404 ([1]; sugar chain having α1→6 fucose)
52000 M⁻¹: Binding constant for sugar chain No. 403 ([1]; sugar chain having α1→6 fucose)
23000 M⁻¹: Binding constant for sugar chain No. 406 ([1]; sugar chain having α1→6 fucose)
120000 M⁻¹: Binding constant for sugar chain No. 602 ([1]; sugar chain having α1→6 fucose)
39000 M⁻¹: Binding constant for sugar chain No. 202 ([1]; sugar chain having α1→6 fucose)
